From the NIST ThermoML archive (doi:10.1016/j.jct.2005.09.003)
± gives the expanded uncertainty stated by the source.

Assay: xn = mol fraction of the nth substance listed
Conditions: 298.15 K, Liquid

CCCCCCCl [1-chlorohexane] + CCCCCCCC
mass density [kg/m3]
Conditions	x2 = 0	x2 = 0.1016	x2 = 0.1996	x2 = 0.3153	x2 = 0.3948	x2 = 0.4862	x2 = 0.5938	x2 = 0.6966	x2 = 0.794	x2 = 0.9001
100 kPa	873.42 ± 0.43	852.6 ± 0.44	833.25 ± 0.45	811.26 ± 0.47	796.69 ± 0.49	780.47 ± 0.5	762.03 ± 0.52	745.09 ± 0.55	729.61 ± 0.57	713.36 ± 0.59
2130 kPa	874.73 ± 0.46	854.08 ± 0.48	834.69 ± 0.5	812.8 ± 0.53	798.13 ± 0.54	781.96 ± 0.57	763.56 ± 0.6	746.66 ± 0.63	731.16 ± 0.65	714.88 ± 0.68
4150 kPa	876.45 ± 0.49	855.81 ± 0.52	836.43 ± 0.54	814.54 ± 0.58	799.88 ± 0.6	783.71 ± 0.63	765.29 ± 0.67	748.4 ± 0.7	732.88 ± 0.73	716.61 ± 0.77
6180 kPa	878.31 ± 0.51	857.67 ± 0.54	838.25 ± 0.58	816.37 ± 0.62	801.68 ± 0.66	785.49 ± 0.69	767.08 ± 0.73	750.15 ± 0.77	734.61 ± 0.81	718.33 ± 0.85
8210 kPa	879.79 ± 0.53	859.18 ± 0.58	839.81 ± 0.62	817.9 ± 0.67	803.24 ± 0.71	787.05 ± 0.75	768.66 ± 0.8	751.72 ± 0.84	736.21 ± 0.89	719.94 ± 0.93
10230 kPa	881.44 ± 0.56	860.8 ± 0.61	841.43 ± 0.66	819.53 ± 0.72	804.88 ± 0.77	788.69 ± 0.81	770.3 ± 0.87	753.38 ± 0.92	737.85 ± 0.96	721.55 ± 1
11250 kPa	882.22 ± 0.57	861.6 ± 0.63	842.23 ± 0.68	820.34 ± 0.75	805.7 ± 0.79	789.48 ± 0.84	771.11 ± 0.9	754.16 ± 0.95	738.66 ± 1	722.34 ± 1.1
12260 kPa	883.01 ± 0.59	862.42 ± 0.65	843.03 ± 0.7	821.13 ± 0.77	806.5 ± 0.82	790.3 ± 0.87	771.9 ± 0.93	754.95 ± 0.98	739.44 ± 1	723.13 ± 1.1
14290 kPa	884.61 ± 0.62	864.01 ± 0.68	844.63 ± 0.74	822.72 ± 0.82	808.08 ± 0.87	791.9 ± 0.93	773.49 ± 0.99	756.55 ± 1.1	741 ± 1.1	724.69 ± 1.2
16310 kPa	886.16 ± 0.64	865.53 ± 0.71	846.17 ± 0.78	824.27 ± 0.87	809.62 ± 0.92	793.43 ± 0.98	775.01 ± 1.1	758.05 ± 1.1	742.51 ± 1.2	726.2 ± 1.2
18340 kPa	887.68 ± 0.67	867.07 ± 0.75	847.69 ± 0.82	825.8 ± 0.91	811.15 ± 0.97	794.94 ± 1	776.55 ± 1.1	759.59 ± 1.2	744.03 ± 1.3	727.69 ± 1.3
20370 kPa	889.18 ± 0.69	868.58 ± 0.78	849.18 ± 0.86	827.29 ± 0.96	812.64 ± 1	796.42 ± 1.1	778.03 ± 1.2	761.06 ± 1.3	745.51 ± 1.3	729.16 ± 1.4
22390 kPa	890.65 ± 0.72	870.05 ± 0.81	850.64 ± 0.9	828.77 ± 1	814.1 ± 1.1	797.89 ± 1.1	779.48 ± 1.2	762.51 ± 1.3	746.97 ± 1.4	730.59 ± 1.5
24420 kPa	892.14 ± 0.74	871.52 ± 0.84	852.13 ± 0.94	830.22 ± 1.1	815.56 ± 1.1	799.35 ± 1.2	780.91 ± 1.3	763.95 ± 1.4	748.37 ± 1.5	732.01 ± 1.6
26450 kPa	893.54 ± 0.77	872.95 ± 0.87	853.55 ± 0.98	831.64 ± 1.1	816.97 ± 1.2	800.75 ± 1.3	782.33 ± 1.4	765.32 ± 1.5	749.76 ± 1.5	733.39 ± 1.6
28470 kPa	894.96 ± 0.79	874.35 ± 0.9	854.96 ± 1	833.04 ± 1.1	818.37 ± 1.2	802.14 ± 1.3	783.71 ± 1.4	766.73 ± 1.5	751.13 ± 1.6	734.74 ± 1.7
29490 kPa	895.65 ± 0.8	875.05 ± 0.92	855.64 ± 1	833.73 ± 1.2	819.06 ± 1.2	802.85 ± 1.3	784.39 ± 1.4	767.4 ± 1.6	751.81 ± 1.6	735.41 ± 1.8
30500 kPa	896.32 ± 0.81	875.72 ± 0.93	856.33 ± 1.1	834.42 ± 1.2	819.73 ± 1.3	803.52 ± 1.4	785.07 ± 1.5	768.07 ± 1.6	752.47 ± 1.7	736.07 ± 1.8
32530 kPa	897.71 ± 0.84	877.11 ± 0.96	857.7 ± 1.1	835.79 ± 1.2	821.11 ± 1.3	804.86 ± 1.4	786.42 ± 1.5	769.4 ± 1.6	753.8 ± 1.8	737.38 ± 1.9
34550 kPa	899.05 ± 0.86	878.46 ± 0.99	859.03 ± 1.1	837.12 ± 1.3	822.43 ± 1.4	806.19 ± 1.5	787.72 ± 1.6	770.72 ± 1.7	755.08 ± 1.8	738.69 ± 1.9
36580 kPa	900.38 ± 0.88	879.77 ± 1	860.35 ± 1.1	838.43 ± 1.3	823.74 ± 1.4	807.48 ± 1.5	789.01 ± 1.6	772.01 ± 1.8	756.36 ± 1.9	739.94 ± 2
38600 kPa	901.69 ± 0.9	881.06 ± 1.1	861.67 ± 1.2	839.72 ± 1.4	825.03 ± 1.4	808.77 ± 1.6	790.32 ± 1.7	773.27 ± 1.8	757.63 ± 1.9	741.21 ± 2.1
39620 kPa	902.33 ± 0.91	881.71 ± 1.1	862.31 ± 1.2	840.38 ± 1.4	825.68 ± 1.5	809.4 ± 1.6	790.96 ± 1.7	773.9 ± 1.9	758.25 ± 2	–
